Counter-ions that a name gives are not always drawn.
How the values were obtained:
MC4R = MC4R (Homo sapiens, UniProt P32245); experiment: Binding affinity (125I-NDP-α-MSH displacement, membranes of HEK-293 cells expressing MC4R); design: expressed in transfected cells; host or cells: HEK-293 cells, membrane preparation; details: 0.02 nM 125I-NDP-α-MSH, 37° C. for two hours, pH 7.0
Description: Five subtypes of melanocortin receptor (MCR) in vivo are known, and it is known that MC4R, which is Subtype 4, is involved in energy metabolism and weight control. Since other MCR subtypes are involved in the regulation of various functions in vivo such as skin pigmentation, energy homeostasis, and exocrine functions, securing selectivity for MC4R of MC4R agonist compounds is very important in preventing possible side effects in the future. Therefore, the receptor binding abilities of MC4R agonists for each MCR subtype were measured.
After the CHO-K 1 cell line expressing human recombinant MC1R and the HEK-293 cell lines expressing MC3R, MC4R and MC5R were established, membranes were collected from each cell line. In a 96-well cell culture plate, 3 μg MC1R membrane and 0.04 nM ^125I-NDP-α-MSH per well were reacted at 37° C. for two hours. 3 μg MC3R and MC5R membrane and 0.035 nM ^125I-NDP-α-MSH were reacted at 37° C. for one hour, and […] MC4R membrane and 0.02 nM ^125I-NDP-α-MSH were reacted at 37° C. for two hours. At this time, 25 mM HEPES-KOH adsorption buffer (pH 7.0) containing MCR agonist diluted at each step concentration was added to each well and reacted. The reacted solution was transferred to a filter and washed with an adsorption buffer, and then radioactivity was measured. The value excluding the non-specific binding amount in the presence of 1 μM (MC1R) and 3 μM (MC3R, MC4R, MC5R) of NDP-α-MSH from each total binding amount was used as specific binding amounts of ^125I-NDP-α-MSH. The degree to which the ^125I-NDP-a-MSH specific binding was inhibited by the agonist diluted at each step concentration was measured. IC50 was expressed as the concentration of each agonist that inhibited specific binding of 50% of ^125I-NDP-α-MSH.
Tables 4-1 and 4-2 show the results of measuring the binding of melanocortin receptors of the compounds obtained by the above experiment in Ki (nM) units.

[1] = target: T1, MC4R (melanocortin-4 receptor) (Homo sapiens, UniProt P32245); experiment: Luciferase assay (CRE-LUC, HEK MC4R-Luc cells); format: cell-based; details: 5 h incubation, concentration inducing 50% of each agonist's own maximum luminescence
T1 construct: expressed in transfected cells
T1 sequence (P32245 whole entry, species assumed): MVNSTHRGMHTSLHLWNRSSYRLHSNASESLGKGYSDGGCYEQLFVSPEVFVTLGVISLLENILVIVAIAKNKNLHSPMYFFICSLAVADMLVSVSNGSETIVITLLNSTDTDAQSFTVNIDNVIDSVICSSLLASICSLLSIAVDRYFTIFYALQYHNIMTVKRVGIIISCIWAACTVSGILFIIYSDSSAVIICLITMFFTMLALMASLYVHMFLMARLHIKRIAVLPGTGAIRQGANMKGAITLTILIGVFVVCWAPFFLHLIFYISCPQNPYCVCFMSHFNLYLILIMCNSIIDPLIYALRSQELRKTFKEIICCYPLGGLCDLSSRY
Method: In order to measure the agonist ability against MC4R (melanocortin-4 receptor), a cell line that permanently expresses the luciferase gene (CRE-LUC) under the control of MC4R and CRE (cAMP response element) was established. After a mammalian cell expression vector (pCDNA3 (Neo)) (Invitrogen) containing the MC4R gene was prepared, human embryonic kidney (HEK) cell lines were transformed by using Lipofectamine 2000 (Invitrogen) together with a vector (pCRE-Luc)(Stratagen) expressing a luciferase gene (CRE-LUC) under the control of a cAMP response element (CRE). Transformed cell lines (HEK MC4R-Luc) were incubated in a 37° C. incubator in the presence of 5% CO2 for 24 hours by using Dulbecco's Modified Eagles Medium (DMEM) containing 10% Heat-Inactivated Fetal Bovine Serum (GIBCO/BRL). The cell lines were incubated for four days in the presence of Dulbecco's Modified Eagles Medium (DMEM) containing 10 ml of selection medium (10% Heat-Inactivated Fetal Bovine Serum (GIBCO/BRL), 100 unit/ml of penicillin (GIBCO/BRL), 100 unit/ml of streptomycin (GIBCO/BRL), 800 μg/ml of Geneticin (G418) (GIBCO/BRL). The process of removing cells killed by the selection medium by replacing the medium with 10 ml of a new selection medium was repeated three times, once every 4 days. Individual colonies formed by the finally selected and propagated clones were transferred under a microscope to a 24-well cell culture plate containing 1 ml of selection medium per well and incubated for 4 days. Forskolin (SIGMA) was treated to a final concentration of 10 μM, and then incubated for five hours in a 37° C. incubator in the presence of 5% CO2. Each well was treated with 50 μl of a Bright-Glo luciferase reagent (Promega) and left at room temperature for 15 minutes, and then the luminescence of each well was measured by using a luminometer (Victor).
HEK MC4R-Luc cells were added to each well of a 96-well luminometer cell culture plate (Costar) to a size of 2.5×10^4 cells in 100 μl of a culture medium and then incubated in a 37° C. incubator in the presence of 6% CO2 for 18 hours. […] Each well was treated with 50 μl of a Bright-Glo luciferase reagent (Promega) and left at room temperature for five minutes, and then the luminescence of each well was measured by using a luminometer (Victor). […] EC0.5 MSH is expressed as a concentration that induces 50% of the maximum amount of luminescence that can be induced by NDP-α-MSH, and EC50 is expressed as a concentration that induces 50% of the maximum amount of luminescence that can be induced by each agonist. The measurements were measured using statistical software (Prizm).

Chain of MC4R (P32245 whole entry): as the sequence (P32245 whole entry, species assumed) above

SMILES	Ki (MC4R; Table 4-1) [nM]	Ki (MC4R; Table 4-2) [nM]	EC50 [1] [nM]
CC(=O)N(C1CCC(C)(C)CC1)[C@H]1C[C@@H](C(=O)N2CCOCC2)N(C(=O)[C@@H]2CN(C(C)(C)C)C[C@H]2c2ccc(F)cc2F)C1 [Comparative Example 1 (A95), N-((3S,5S)-1-((3S,4R)-1-(tert-butyl)-4-(2,4-difluorophenyl)pyrrolidine-3-carbonyl)-5-(morpholine-4-carbonyl)pyrrolidin-3-yl)-N-(4,4-dimethylcyclohexyl)acetamide hydrochloride, reference compound]	1450	1780	14.7
CC(=O)N(C1CCC(C)(C)CC1)[C@H]1C[C@@H](C(=O)N2CCOCC2)N(C(=O)[C@@H]2CN(C(C)(C)C)C[C@H]2c2ccc(Cl)cc2)C1 [Comparative Example 2 (A96), N-((3S,5S)-1-((3S,4R)-1-(tert-butyl)-4-(4-chlorophenyl)pyrrolidine-3-carbonyl)-5-(morpholine-4-carbonyl)pyrrolidin-3-yl)-N-(4,4-dimethylcyclohexyl)acetamide hydrochloride, reference compound]	410	530	5.61
CC(C)C(=O)N(C1CCC(C)(C)CC1)[C@H]1C[C@@H](C(=O)N2CCOCC2)N(C(=O)[C@@H]2CN(C(C)(C)C)C[C@H]2c2ccc(Cl)cc2)C1 [Example 5, N-((3S,5S)-1-((3S,4R)-1-(tert-butyl)-4-(4-chlorophenyl)pyrrolidine-3-carbonyl)-5-(morpholine-4-carbonyl)pyrrolidin-3-yl)-N-(4,4-dimethylcyclohexyl)isobutyramide hydrochloride]	–	–	3.82

Source: patent publication US20240190856A1, “MELANOCORTIN-4 RECEPTOR AGONIST” (LG CHEM, LTD., priority 2021, published 2024)
